Key:
[1] = molecular target: Replicase polyprotein 1ab (Severe acute respiratory syndrome coronavirus 2) (UniProt P0DTD1); assay: Inhibition of SARS-CoV-2 papain-like protease at 100 microg/ml relative to control; details: dose 100.0 µg/ml
[2] = molecular target: Replicase polyprotein 1ab (Severe acute respiratory syndrome coronavirus 2) (UniProt P0DTD1); assay: Inhibition of SARS-CoV-2 main protease at 100 microg/ml relative to control; details: dose 100.0 µg/ml
[3] = tested on: Fibroblast; assay: Cytotoxicity against human fibroblasts cells assessed as cell growth inhibition by MTT assay; assay type: cell-based
[4] = tested on: SARS-CoV-2; assay: Antiviral activity against SARS-CoV-2 NRC-03-nhCoV strain infected in Vero E6 cells; assay type: functional, organism-based; details: Severe acute respiratory syndrome coronavirus 2, NRC-03-nhCoV, Vero C1008

SMILES	inhibition [1] [%]	inhibition [2] [%]	IC50 [3] [nM]	IC50 [4] [nM]
COc1cc(CC(C)NCc2cc(NC(=O)c3ccccn3)cc(C(=O)N(C)C)c2)ccc1O (configuration not stated)	> 40			
CCOC(=O)C(Cc1c[nH]c2ccccc12)NC(=O)CCC(=O)Nc1ccc(S(N)(=O)=O)cc1 (configuration not stated)	> 40			
COc1ccc(/C=C\C(=O)NC(=S)Nc2ccc(S(=O)(=O)NC(N)=O)cc2)cc1OC	> 40			
COc1cc(C(NC2=NC(=O)C(CC(=O)Nc3ccc(C(=O)O)cc3)S2)c2c(O)[nH]c(=O)[nH]c2=O)ccc1O (configuration not stated)	56.4	31	1670	770
O=C(CSc1nnc(NC2CC2)s1)Nc1ccccc1C(=O)Nc1ccc2c(c1)OCO2	> 40	26.4		
N=C(N/N=C/c1ccccc1O)c1nonc1NCNc1nonc1C(=N)N/N=C/c1ccccc1O			410	110
O=C(CSc1nnc2c(n1)[nH]c1ccccc12)Nc1cccc(S(=O)(=O)N2CCOCC2)c1	> 40			

— ChEMBL document CHEMBL4819138, “Promising anti-SARS-CoV-2 drugs by effective dual targeting against the viral and host proteases” (Bioorg Med Chem Lett, 2021)
